Results on three compounds are retold here after US12469647B2, “Electrolytic capacitor” (Panasonic Intellectual Property Management Co., Ltd., priority 2020, dated 2025).

A short description of the data set: acid dissociation constant (pKa) of the conjugate acid of the base component. The settings on record: water.

Source text: The pKa of the conjugate acid of the base is the pKa of the cation of the base.

`CCCCN1CCOCC1` [N-butylmorpholine] returned a pKa of 7.5.

In turn, `CC(C)CN(CC(C)C)CC(C)C` [triisobutylamine] showed a pKa of 9.5.

In turn, `CCCCNCCCC` [dibutylamine] registered a pKa of 11.3.

What is called pKa is the pH at which an ionisable group is half protonated. Read a low pKa as a stronger acid or weaker base.
